Measured values reported in ChEMBL document CHEMBL3137356, “MMV Box Cryptosporidium parvum screening set”.

Tested on: Cryptosporidium parvum
Assay: MMV: Cryptosporidium parvum oocysts (Iowa Strain) were prepared for use by treatment with 10 mM HCl (37 degrees C, 10 min) followed by 2 mM sodium taurocholate in phosphate-buffered saline (PBS) with Ca2+ and Mg2+ (16 degrees C, 10 min) in order to stimulate excystation. The high-throughput screen was carried out by inoculating >90% confluent human ileocecal adenocarcinoma (HCT-8) cells (ATCC) with ~5.5 x 10^3 primed oocysts per well. Experimental compounds or DMSO (vehicle) were added three hours after infection, and cells were incubated for 48 hours.
Type: functional

`CCOC(=O)c1cn(CC)c2cc(N3CCCCC3)c(F)cc2c1=O` gave an Inhibition of 6.363%.
Compound `CCc1ccc(CNCC(O)c2ccccc2)cc1.Cl` (configuration not stated) has an Inhibition of -7.138%.
For `O=C(Nc1ccc(-c2nc3cc4ccccc4cc3[nH]2)cc1)c1cccc(Br)c1`, the Inhibition was -10.01%.
For `CCOc1ccc(/C=C/c2nc(=O)c3ccccc3o2)cc1`, the Inhibition was -0.2946%.
Compound `Cc1ccc(CSCc2ccc(C(=O)NC3CC3)o2)cc1` has an Inhibition of -11.49%.
`Cc1cc(N2CCCC2)nc(Nc2ccc(NC(=O)CCc3ccccc3)cc2)n1` was tested, and the Inhibition was 13.46%.
With `Cc1ccc(-c2cc3c(nn2)-c2ccccc2C3=O)cc1` the Inhibition was -55.29%.
`CCOC(=O)c1c[nH]c2c(CC)cccc2c1=O` was tested, and the Inhibition was 0.8782%.
With `CC1CC(C)CN(C(=O)c2ccc(Cl)cc2Cl)C1` (configuration not stated) the Inhibition was -45.44%.
`OC(CNC1CCCCC1)Cn1c2ccccc2c2ccccc21` (configuration not stated) was tested, and the Inhibition was -24.91%.
`COc1cc(CNCCc2ccc(Cl)cc2)cc(OC)c1O` gave an Inhibition of 5.38%.
For `Cl.c1ccc2c(NCCCCCCNc3c4c(nc5ccccc35)CCCC4)c3c(nc2c1)CCCC3`, the Inhibition was 13.18%.
With `CN(C)c1ccc(-c2nc3cc(N)ccc3[nH]2)cc1` the Inhibition was -41.71%.
With `CCCCCCc1cc2cc(-c3nc4ccccc4[nH]3)c(=Nc3ccccc3C)oc2cc1O` the Inhibition was -3.461%.
For `COc1ccc2c(=O)cc(C(Cl)(Cl)Cl)oc2c1`, the Inhibition was 71.77%.
`COc1cccc(Nc2nc(NCCO)c3ccccc3n2)c1.Cl` was tested, and the Inhibition was 65.39%.
For `O=C1c2ccccc2C2=Nc3ccccc3SC(c3cccc(F)c3)C12` (configuration not stated), the Inhibition was -5.793%.
`COc1ccc(C2C(C(=O)Nc3cccc(OC)c3)c3ccccc3C(=O)N2C2CCCCC2)cc1` (configuration not stated) was tested, and the Inhibition was -43.91%.
`Oc1c(CN2CCN(c3ccccc3F)CC2)cc(Br)c2cccnc12` was tested, and the Inhibition was 61.72%.
`C=CCc1c(C)nc2ccccc2c1O` showed an Inhibition of -10.8%.
`OC(Cn1nnc2ccccc21)Cn1c2ccc(Br)cc2c2cc(Br)ccc21` (configuration not stated) showed an Inhibition of -11.24%.
In the case of `COc1ccccc1N1C(=N)SC(=Cc2ccc(OCc3ccccc3F)cc2)C1=O`, the Inhibition was -8.054%.
Compound `Nc1ccn([C@@H]2O[C@H](CO)[C@@H](O)[C@H]2O)c(=O)n1` [CYTIDINE] has an Inhibition of 73.84%.
In the case of `COc1ccc(-c2cc3c(SCC(=O)Nc4cc(C(F)(F)F)ccc4Cl)nccn3n2)cc1`, the Inhibition was -78.4%.
In the case of `O=C(Nc1cccc(-c2nc3ccccc3[nH]2)c1)c1cccc(NC(=O)c2ccco2)c1`, the Inhibition was 23.53%.
`CC(Oc1ccc(NC(=O)c2cccs2)cc1)C(=O)c1ccc(Cl)cc1` (configuration not stated) gave an Inhibition of 19.15%.
`Oc1ccc(Br)cc1CN1CCN(Cc2ccc(Cl)cc2)CC1` showed an Inhibition of -16.25%.
Work on `CCCc1cc(O)c2c3c(c(=O)oc2c1)CN(C)CC3` yielded an Inhibition of -49.5%.
`COc1cccc(C(=O)NC(c2ccc(C)cc2)c2cc(Cl)c3cccnc3c2O)c1` (configuration not stated) was tested, and the Inhibition was 59.18%.
`COc1ccc(C(=O)C2CC2c2ccc(Cl)cc2)cc1` (configuration not stated) gave an Inhibition of -36.26%.
`COc1ccc2c(c1OC)C(=O)N1c3ccccc3N=C(c3ccc(C)cc3)CC21` (configuration not stated) was tested, and the Inhibition was -57.7%.
`Cc1cc(=O)oc2c1ccc1oc(C(=O)c3ccccc3)c(C)c12` showed an Inhibition of 64.86%.
Compound `CCN(Cc1ccccc1)C1CCN(Cc2cc(Br)ccc2O)CC1.O=C(O)C(=O)O` has an Inhibition of -6.655%.
`COc1ccccc1CNC(=O)CCn1c(=O)[nH]c2ccsc2c1=O` showed an Inhibition of -10.39%.
With `OC(CNCC1CCCO1)Cn1c2ccc(Cl)cc2c2cc(Cl)ccc21` (configuration not stated) the Inhibition was -33.95%.
For `O=C(O)C(=O)O.Oc1ccc(Br)cc1CN1CCN(Cc2cccc(F)c2)CC1`, the Inhibition was -34.58%.
`COc1ccccc1C(=O)ON=C(N)Cc1cccc2ccccc12` gave an Inhibition of -19.53%.
With `COc1ccc(C2Sc3ccccc3N=C3C2=C(O)c2ccccc23)cc1` (configuration not stated) the Inhibition was 19.55%.
With `CN1CCN(c2ncnc3c2[nH]c2ccc(Cl)cc23)CC1` the Inhibition was -51.61%.
`Nc1ccc(-c2nc3cc(Oc4ccc(Oc5ccc6[nH]c(-c7ccc(N)cc7)nc6c5)cc4)ccc3[nH]2)cc1` was tested, and the Inhibition was -48.18%.
`COc1cccc(O)c1CN1CCC2(CCCN(Cc3ccc(F)cc3)C2)C1` (configuration not stated) was tested, and the Inhibition was 46%.
Work on `COCCNC(=O)c1ccc(OC2CCN(Cc3ccc(F)c(F)c3)CC2)c(Cl)c1` yielded an Inhibition of 10.52%.
With `CN(C)c1ccc(N2C(N)=NC(N)=NC2(C)C)cc1` the Inhibition was -33.57%.
`CCCCOC(=O)c1ccc(Nc2cc(C)nc3ccc(OC)cc23)cc1` showed an Inhibition of 12.32%.
Compound `CCOc1ccc2nc(C)cc(Nc3ccc(N(C)C)cc3)c2c1.Cl` has an Inhibition of -13.24%.
In the case of `CN(C)c1ccc(C(O)(c2ccc(N(C)C)cc2)c2ccc(N(C)C)cc2)cc1` [METHYLROSANILINE], the Inhibition was 77.77%.
With `O=C(O)C1Cc2c([nH]c3ccccc23)C(c2ccc(Cl)cc2Cl)N1` (configuration not stated) the Inhibition was -71.65%.
`Cc1ccc(-c2nc3ccccc3o2)cc1NCc1cc(Cc2ccccc2)ccc1O` showed an Inhibition of 20.55%.
Work on `c1ccc(Cn2c(N=Nc3c(Nc4ccccc4)ccc4ccccc34)nc3ccccc32)cc1` yielded an Inhibition of 2.817%.
For `Cc1cccc(Nc2nc(N)c3ccccc3n2)c1.Cl`, the Inhibition was 39.08%.
For `COc1cccc(C(=O)Nc2ccc(-c3nc4ccccc4[nH]3)cc2)c1`, the Inhibition was -26.13%.
Compound `CCOc1ccc(-c2nc(NC(=O)c3cccc(S(C)(=O)=O)c3)sc2C)cc1` has an Inhibition of 26.25%.
With `COc1ccc(NC(=O)C2c3ccccc3C(=O)N(CC(C)C)C2c2cccs2)cc1` (configuration not stated) the Inhibition was 0.02548%.
With `Clc1ccc2[nH]c3c(NCCCN4CCOCC4)ncnc3c2c1` the Inhibition was 37.37%.
`CC(C)(C)c1ccc(C(=O)Nc2nc3ccccc3s2)cc1` was tested, and the Inhibition was 63.38%.
`O=C(Nc1ccccc1O)c1ccc(Oc2cccc(C(=O)Nc3ccccc3O)c2)cc1` gave an Inhibition of -14.93%.
`CN1c2ccccc2N(C)C1c1ccc2c(c1)OCO2` was tested, and the Inhibition was -58.41%.
Compound `CCCCC(O)(c1ccc(Cl)cc1)C(CN1CCOCC1)c1ccc(Cl)cc1.Cl` (configuration not stated) has an Inhibition of 17.88%.
`COc1ccc(/C=C2/SC(=Nc3ccccc3)NC2=O)cc1` gave an Inhibition of 35.48%.
`CCN1CCN(Cc2ccc(NC(=O)c3cc4ccc5cccnc5c4[nH]3)cc2)CC1` gave an Inhibition of -49.16%.
`COc1cccc(Nc2nc(N)c3ccccc3n2)c1.Cl` gave an Inhibition of 27.99%.
`COc1ccc(C)c2sc(N(Cc3cccnc3)C(=O)c3ccc(C#N)cc3)nc12` gave an Inhibition of -2.161%.
Work on `Cc1cc(Nc2ccc(Cl)cc2)n2nc(C(F)(F)F)nc2n1` yielded an Inhibition of 36.64%.
In the case of `COc1ccc(C(=O)NC(c2ccccc2Cl)c2cc(Cl)c3cccnc3c2O)cc1` (configuration not stated), the Inhibition was 32.62%.
`Cc1cc(C=C2SC(=Nc3ccccc3)N(C3CCCC3)C2=O)c(C)n1-c1ccc(Cl)cc1` was tested, and the Inhibition was 0.2141%.
For `CCOC(=O)C1CCN(C(=O)CN2C(=O)c3ccccc3C2c2c[nH]c3ccccc23)CC1` (configuration not stated), the Inhibition was 23.12%.
`Cc1ccc(C2CC(C(F)(F)F)n3nc(C(=O)N4CCN(C(c5ccccc5)c5ccccc5)CC4)cc3N2)cc1` (configuration not stated) was tested, and the Inhibition was -21.96%.
Work on `c1ccc2c(NCCc3c[nH]c4ccccc34)c3ccccc3nc2c1` yielded an Inhibition of 19.05%.
`CCN(CC)CCNc1ncnc2c1[nH]c1ccc(Cl)cc12` showed an Inhibition of -27.98%.
`O=C(CCc1ccccc1)c1ccccc1OCC(O)CN1CCCCC1` (configuration not stated) gave an Inhibition of -4.075%.
Work on `CCCOCc1cc(CN2CCN(c3cccc(Cl)c3)CC2)c(O)c2ncccc12` yielded an Inhibition of 58.2%.
Compound `Cl.Oc1ccccc1CNCC12CC3CC(CC(C3)C1)C2` has an Inhibition of -10.2%.
Compound `O=C(Cc1ccccc1)NC(c1ccc(Cl)cc1)c1c(O)ccc2ccccc12` (configuration not stated) has an Inhibition of -13.28%.
Compound `O=C(NCc1ccco1)C1CCN(S(=O)(=O)c2ccc(Br)cc2)CC1` has an Inhibition of 29.65%.
`COc1ccccc1CNC(=O)C1c2ccccc2C(=O)N(CC(C)C)C1c1cccs1` (configuration not stated) gave an Inhibition of 58.94%.
Work on `O=C(Nc1ccc(-c2nc3cc(NC(=O)c4ccc(Cl)cc4)ccc3[nH]2)cc1)c1ccc(Cl)cc1` yielded an Inhibition of -6.932%.
Work on `O=C(NC1CCN(Cc2ccccc2)CC1)c1cc(C(=O)NC2CCN(Cc3ccccc3)CC2)cc(C(=O)NC2CCN(Cc3ccccc3)CC2)c1` yielded an Inhibition of 0.9409%.
Compound `COc1cc(OC)c(N(C)C(=O)c2cc3c(s2)-c2ccccc2S(=O)(=O)C3)cc1Cl` has an Inhibition of -25.68%.
For `CCOC(=O)c1c(C)n(-c2ccc(Cl)cc2)c2ccc(OC(=O)C=Cc3ccccc3)cc12`, the Inhibition was -77.36%.
In the case of `OCCNc1nc(Nc2ccc(Cl)c(Cl)c2)nc2ccccc12`, the Inhibition was 12.96%.
`COc1cc2cc(C(=O)Nc3ccccc3)c(N)nc2cc1OC` was tested, and the Inhibition was -19.13%.
Compound `O=C(NCCCN1CCC(N2CCCCC2)CC1)C1=Cc2cc(Br)ccc2OC1` has an Inhibition of -11.72%.
With `CCOC(=O)c1cnc2ccc(OC)cc2c1NCc1ccccc1` the Inhibition was 13.76%.
With `Oc1c(C(Nc2ccccn2)c2cccc(Oc3ccccc3)c2)ccc2cccnc12` (configuration not stated) the Inhibition was 73.93%.
For `COc1ccc(C(=O)Nc2ccc(Cl)cc2C(=O)Nc2ccncc2)cc1`, the Inhibition was -23.38%.
In the case of `CC(C)(C)CC(C)(C)NCC(O)COc1ccc2c(c1)CCC2.Cl` (configuration not stated), the Inhibition was -49.34%.
`COc1cccc(Cn2c(Oc3ccccc3)nc3c2c(=O)n(C)c(=O)n3C)c1` was tested, and the Inhibition was -39.36%.
`Oc1c2c(nc3cc(-c4ccccc4)nn13)CCCC2` was tested, and the Inhibition was 37.02%.
With `Cc1ccc(Nc2nc(-c3ccccn3)cs2)cc1` the Inhibition was -19.75%.
`CC(NCc1ccccc1)c1cc(Cl)ccc1O` (configuration not stated) was tested, and the Inhibition was -51.25%.
In the case of `Fc1ccc2[nH]c3c(NCCCN4CCOCC4)ncnc3c2c1`, the Inhibition was -0.2614%.
For `CC(=O)Nc1nnc(SCc2c(C)cc(C(C)(C)C)cc2C)s1`, the Inhibition was -2.709%.
`O=C(NCc1ccco1)C1CCN(S(=O)(=O)c2ccc(Cl)cc2)CC1` was tested, and the Inhibition was -53.31%.
With `COc1ccccc1CNC(=O)CCn1c(=O)[nH]c2ccccc2c1=O` the Inhibition was 3.729%.
Work on `C=C(C)CCC(C)N1CCC(N2CCC(C(=O)NCCc3ccccc3)CC2)CC1` (configuration not stated) yielded an Inhibition of -27.27%.
Work on `Cc1ccccc1OCCSc1nc2ccc(NC(=O)c3cccs3)cc2s1` yielded an Inhibition of -27.25%.
In the case of `Nc1nc(Nc2cccc(F)c2)nc2ccccc12`, the Inhibition was 22.76%.
Work on `FC(F)(F)c1cccc(Nc2nc(-c3ccccc3)nc3ncccc23)c1` yielded an Inhibition of -10.43%.
`Cc1ccc(-c2cc3nc4c(c(O)n3n2)CCCC4)cc1` was tested, and the Inhibition was 2.31%.
`Cc1sc(NC(=O)c2ccccc2)c(C(c2cccs2)N2CCN(c3ccccc3)CC2)c1C` (configuration not stated) gave an Inhibition of -51.35%.
For `CCOc1ccc(N2C(N)=NC(N)=NC2(C)C)cc1.Cl`, the Inhibition was -26.74%.
`O=C(Nc1ccc(N2CCN(Cc3ccccc3)CC2)cc1)c1cccs1.O=C(O)C(F)(F)F` showed an Inhibition of -70.26%.
